The results in this text go back to article PMC10935199, “Rosmarinic Acid Present in Lepechinia floribunda and Lepechinia meyenii as a Potent Inhibitor of the Adenylyl Cyclase gNC1 from Giardia lamblia” (Plants, 2024).

The test deals with T1, adenylyl cyclase gNC1 (Giardia nucleotidyl cyclase 1).
T1 construct: catalytic domain of gNC1 (construct gNC1-301)
The experiment in a line: adenylyl cyclase assay on enriched gNC1-301, cAMP by radiobinding protein assay; ATP kinetics. It is filed as biochemical, Giardia intestinalis.

In the case of `O=C(/C=C/c1ccc(O)c(O)c1)O[C@H](Cc1ccc(O)c(O)c1)C(=O)O` [compound 3, rosmarinic acid], the half-maximal inhibitory concentration (IC50) (usually the concentration needed to halve the response being measured) is 10.1 ± 1.3 µM.
